Values joined by “and” are separate entries in the source; they are usually repeats but may differ in a detail not shown here. Equal values may be shown once. Each block holds one molecule with its values, some of them ahead of it. Where a SMILES comes first, the peptide text is derived from it. Bridges are numbered along the chain shown (N, C = ends). [ ]: non-standard residue; d: D form. Orn(fluoroacetimidoyl) = N=C(CF)NCCC[C@H](N)C(=O)O
Tests used:
Assay in all cases: Incubation time-dependent COLDER assay, selectivity
Assay type in all cases: biochemical
[1] = target: T1, PADI1 (Homo sapiens, UniProt Q9ULC6); conditions: for PADI1 activity normalised to 0.1% DMSO: quenched after 60 mins
T1 construct: human PADI1 (residue 1-663); made in house; host or cells: E. coli NiCo21(DE3)
T1 sequence (Q9ULC6 1-663): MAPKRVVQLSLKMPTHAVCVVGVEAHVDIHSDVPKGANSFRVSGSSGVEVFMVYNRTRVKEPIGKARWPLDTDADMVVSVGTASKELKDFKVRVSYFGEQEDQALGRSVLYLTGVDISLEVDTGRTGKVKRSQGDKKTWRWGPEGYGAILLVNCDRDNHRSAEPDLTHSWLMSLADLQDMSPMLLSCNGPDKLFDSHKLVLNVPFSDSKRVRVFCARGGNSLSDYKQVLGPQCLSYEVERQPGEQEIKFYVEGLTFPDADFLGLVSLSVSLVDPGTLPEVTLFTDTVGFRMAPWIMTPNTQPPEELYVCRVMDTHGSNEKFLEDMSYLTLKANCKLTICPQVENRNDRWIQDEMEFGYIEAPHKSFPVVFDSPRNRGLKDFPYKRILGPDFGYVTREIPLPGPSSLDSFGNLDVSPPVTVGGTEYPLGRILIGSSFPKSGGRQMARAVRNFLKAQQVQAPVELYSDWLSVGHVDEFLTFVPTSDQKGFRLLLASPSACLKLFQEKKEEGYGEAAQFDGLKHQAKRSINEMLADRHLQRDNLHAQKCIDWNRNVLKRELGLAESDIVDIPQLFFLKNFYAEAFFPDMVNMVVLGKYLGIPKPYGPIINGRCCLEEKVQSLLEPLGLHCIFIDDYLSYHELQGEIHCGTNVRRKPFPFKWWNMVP
Description: (§1) To determine KI and kinact of covalent peptide inhibitors, COLDER assays were used[52]. Peptide dilutions were prepared using 5-fold dilutions from 500 µM and 300 µM to 0.8 µM and 2.4 µM, respectively, at 1% DMSO in COLDER buffer (50 mM HEPES, 150 mM NaCl and 2 mM DTT, pH 7.5). The 9 peptide dilutions were added to a 96-well plate, alongside a 1% DMSO control. An equal volume of 10 mM BAEE was added to each well and the solution was homogenised by pipette mixing. This was mixed with 50 nM His-PADI4, 0.6 mg/mL BSA and 10 mM CaCl2, in COLDER buffer, to bring the final volume to 300 µL in each well. Alternatively, His-PAD1 (100 nM) /His-PADI2 (100 nM) /His-PADI3 (250 nM) were used. For assays with PADI1 and PADI3, 10 mM N^α-benzoyl-L-arginine methyl […] (BAME) was used as the substrate instead of BAEE[48],[58],[59]. At 15-minute intervals, for 5 timepoints, 50 µL of solution was taken from each well and quenched with 10 µL EDTA (300 mM). 200 µL of COLDER solution containing 20 mM diacetyl monoxime/2,3-butanedione monoxime (Merck), 0.5 mM thiosemicarbazide (Acros Organics), 2.25 M H3PO4, 4.5 M H2SO4 and 1.5 mM NH4Fe(SO4)2.12H2O was added to each well. Samples were incubated for 20 min at 95 °C before measuring absorbance at 540 nm on a CLARIOstar Plus (BMG LABTECH). IC50 values for each time point were determined using non-linear regression with GraphPad Prism. Incubation time–dependent potency IC50(t) against incubation time was fitted to the Krippendorff equation (below) to determine KI and kinact using a Python script[53],[59]. […] IC50t=KI1+S/KM⋅2−2e^−ηIC50⋅kinact⋅t/ηIC50⋅kinact⋅t−1 WhereηIC50=IC50t/KI1+S/KM+IC50t

[2] = target: T2, PADI2 (Homo sapiens, UniProt Q9Y2J8); conditions: for PADI2 activity normalised to 0.1% DMSO: quenched after 60 mins
T2 construct: His6; made in house
T2 sequence (Q9Y2J8 whole entry, species assumed): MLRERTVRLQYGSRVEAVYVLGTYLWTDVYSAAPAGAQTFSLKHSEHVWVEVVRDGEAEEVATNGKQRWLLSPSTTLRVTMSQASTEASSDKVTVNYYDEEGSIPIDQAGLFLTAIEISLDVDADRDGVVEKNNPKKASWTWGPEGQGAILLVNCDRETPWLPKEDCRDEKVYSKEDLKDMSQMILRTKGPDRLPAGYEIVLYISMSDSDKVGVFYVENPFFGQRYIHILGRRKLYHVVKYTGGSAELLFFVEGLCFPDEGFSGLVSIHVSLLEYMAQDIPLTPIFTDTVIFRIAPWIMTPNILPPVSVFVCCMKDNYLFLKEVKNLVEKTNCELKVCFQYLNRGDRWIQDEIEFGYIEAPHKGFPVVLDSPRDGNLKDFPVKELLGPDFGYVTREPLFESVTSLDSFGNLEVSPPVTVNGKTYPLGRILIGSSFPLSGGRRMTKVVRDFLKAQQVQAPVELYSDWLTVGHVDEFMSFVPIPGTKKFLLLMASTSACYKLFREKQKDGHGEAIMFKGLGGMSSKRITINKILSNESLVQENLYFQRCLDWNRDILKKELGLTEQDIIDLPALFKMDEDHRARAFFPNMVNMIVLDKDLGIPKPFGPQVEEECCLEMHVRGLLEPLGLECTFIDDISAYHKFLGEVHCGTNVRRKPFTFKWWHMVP
Description: as §1

[3] = target: T3, PADI3 (Homo sapiens, UniProt Q9ULW8); conditions: for selectivity for PADI4 over PADI3: COLDER; for PADI3 activity, normalised (Figure S11c): same values as column 60 of Figure S11b; for PADI3 activity normalised to 0.1% DMSO: quenched after 60 mins
T3 construct: PADI3 (residue 1-664); made in house; host or cells: E. coli NiCo21(DE3)
T3 sequence (Q9ULW8 1-664): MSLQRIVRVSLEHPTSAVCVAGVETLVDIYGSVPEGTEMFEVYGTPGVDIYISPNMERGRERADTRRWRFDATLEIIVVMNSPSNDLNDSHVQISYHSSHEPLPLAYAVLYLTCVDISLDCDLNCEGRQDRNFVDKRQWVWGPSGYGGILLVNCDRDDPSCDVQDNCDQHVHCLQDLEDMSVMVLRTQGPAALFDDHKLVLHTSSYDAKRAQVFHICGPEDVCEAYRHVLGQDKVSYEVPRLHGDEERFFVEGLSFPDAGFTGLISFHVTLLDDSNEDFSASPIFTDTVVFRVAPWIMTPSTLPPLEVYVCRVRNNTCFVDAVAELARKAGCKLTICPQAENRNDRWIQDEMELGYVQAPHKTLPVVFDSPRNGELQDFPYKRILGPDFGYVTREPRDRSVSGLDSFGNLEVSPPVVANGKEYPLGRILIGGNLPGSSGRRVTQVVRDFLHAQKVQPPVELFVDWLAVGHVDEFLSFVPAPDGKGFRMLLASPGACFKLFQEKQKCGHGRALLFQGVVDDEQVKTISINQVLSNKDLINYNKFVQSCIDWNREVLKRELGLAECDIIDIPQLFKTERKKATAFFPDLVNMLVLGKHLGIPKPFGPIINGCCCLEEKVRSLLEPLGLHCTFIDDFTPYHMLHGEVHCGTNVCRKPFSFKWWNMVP
Description: as §1

PADI1 activity, normalised (Figure S11c) ([1]; cP4_4 0.08 µM): 100 and 102.598 | PADI1 activity, normalised (Figure S11c) ([1]; cP4_4 0.24 µM): 93.9237 and 90.941 | PADI1 activity, normalised (Figure S11c) ([1]; cP4_4 0.4 µM): 98.9277 and 105.899 | PADI1 activity, normalised (Figure S11c) ([1]; cP4_4 1.2 µM): 98.9873 and 104.073 | PADI1 activity, normalised (Figure S11c) ([1]; cP4_4 2 µM): 100.477 and 105.618 | PADI1 activity, normalised (Figure S11c) ([1]; cP4_4 6 µM): 94.7578 and 98.4551 | PADI1 activity, normalised (Figure S11c) ([1]; cP4_4 10 µM): 89.6942 and 96.559 | PADI1 activity, normalised (Figure S11c) ([1]; cP4_4 30 µM): 69.6188 and 76.5449 | PADI1 activity, normalised (Figure S11c) ([1]; cP4_4 50 µM): 54.4281 and 69.382 | PADI2 activity, normalised (Figure S11c) ([2]; cP4_4 0.08 µM): 99.789 and 100 | PADI2 activity, normalised (Figure S11c) ([2]; cP4_4 0.24 µM): 95.7806 and 93.2203 | PADI2 activity, normalised (Figure S11c) ([2]; cP4_4 0.4 µM): 102.532 and 106.78 | PADI2 activity, normalised (Figure S11c) ([2]; cP4_4 1.2 µM): 102.954 and 112.106 | PADI2 activity, normalised (Figure S11c) ([2]; cP4_4 2 µM): 97.2574 and 108.91 | PADI2 activity, normalised (Figure S11c) ([2]; cP4_4 6 µM): 96.6245 and 106.586 | PADI2 activity, normalised (Figure S11c) ([2]; cP4_4 10 µM): 98.7342 and 104.552 | PADI2 activity, normalised (Figure S11c) ([2]; cP4_4 30 µM): 95.8861 and 92.155 | PADI2 activity, normalised (Figure S11c) ([2]; cP4_4 50 µM): 84.8101 and 93.6077 | selectivity for PADI4 over PADI3 [3]: 8 fold | PADI3 activity, normalised (Figure S11c) ([3]; cP4_4 0.08 µM): 98.438 and 99.5208 and 99.723 | PADI3 activity, normalised (Figure S11c) ([3]; cP4_4 0.24 µM): 84.0122 and 99.425 and 100.739 | PADI3 activity, normalised (Figure S11c) ([3]; cP4_4 0.4 µM): 91.6386 and 95.0168 and 95.5679 | PADI3 activity, normalised (Figure S11c) ([3]; cP4_4 1.2 µM): 73.8132 and 78.438 and 79.5014 | PADI3 activity, normalised (Figure S11c) ([3]; cP4_4 2 µM): 66.9219 and 70.5798 | PADI3 activity, normalised (Figure S11c) ([3]; cP4_4 6 µM): 34.487 and 31.5764 and 37.6731 | PADI3 activity, normalised (Figure S11c) ([3]; cP4_4 10 µM): 25.1148 and 25.0599 and 28.7165 | PADI3 activity, normalised (Figure S11c) ([3]; cP4_4 30 µM): 13.6294 and 7.139 and 10.988 | PADI3 activity, normalised (Figure S11c) ([3]; cP4_4 50 µM): 9.311 and 5.7978 and 6.279
Structure (SMILES): N=C(N)NCCC[C@@H]1NC(=O)[C@H](CCCNC(=N)CF)NC(=O)[C@H](CC(=O)O)NC(=O)[C@H](Cc2ccc(O)cc2)NC(=O)[C@H](CCCCN)NC(=O)[C@H](CO)NC(=O)[C@@H](Cc2ccc(O)cc2)NC(=O)CSC[C@@H](C(=O)NCC(N)=O)NC(=O)[C@H](CC(=O)O)NC(=O)[C@H](CCCNC(=N)N)NC(=O)[C@@H]2CCCN2C(=O)[C@H](CO)NC1=O [cP4_4, ySKYD(2)RSPRDCG] ({CH2CO}-[dY]SKYD[Orn(fluoroacetimidoyl)]RSPRDCG-NH2; thioether N-12)

PADI1 activity normalised to 0.1% DMSO ([1]; 0.08 µM): 100.799 and 102.269 | PADI1 activity normalised to 0.1% DMSO ([1]; 0.24 µM): 99.0011 and 78.928 | PADI1 activity normalised to 0.1% DMSO ([1]; 0.4 µM): 101.598 and 103.89 | PADI1 activity normalised to 0.1% DMSO ([1]; 1.2 µM): 101.532 and 99.3516 | PADI1 activity normalised to 0.1% DMSO ([1]; 2 µM): 105.527 and 101.88 | PADI1 activity normalised to 0.1% DMSO ([1]; 6 µM): 100.999 and 97.3417 | PADI1 activity normalised to 0.1% DMSO ([1]; 10 µM): 97.1365 and 102.594 | PADI1 activity normalised to 0.1% DMSO ([1]; 30 µM): 94.4062 and 95.3966 | PADI1 activity normalised to 0.1% DMSO ([1]; 50 µM): 83.818 and 84.4392 | PADI2 activity normalised to 0.1% DMSO ([2]; 0.08 µM): 102.409 and 98.7439 | PADI2 activity normalised to 0.1% DMSO ([2]; 0.24 µM): 101.533 and 89.4278 | PADI2 activity normalised to 0.1% DMSO ([2]; 0.4 µM): 100.438 and 90.9979 | PADI2 activity normalised to 0.1% DMSO ([2]; 1.2 µM): 102.409 and 98.4299 | PADI2 activity normalised to 0.1% DMSO ([2]; 2 µM): 106.46 and 98.5345 | PADI2 activity normalised to 0.1% DMSO ([2]; 6 µM): 102.299 and 92.9867 | PADI2 activity normalised to 0.1% DMSO ([2]; 10 µM): 102.956 and 100.105 | PADI2 activity normalised to 0.1% DMSO ([2]; 30 µM): 100.219 and 95.1849 | PADI2 activity normalised to 0.1% DMSO ([2]; 50 µM): 83.0292 and 85.4501 | PADI3 activity normalised to 0.1% DMSO ([3]; 0.08 µM): 106.942 and 103.941 | PADI3 activity normalised to 0.1% DMSO ([3]; 0.24 µM): 100.503 and 99.2995 | PADI3 activity normalised to 0.1% DMSO ([3]; 0.4 µM): 100.805 and 104.641 | PADI3 activity normalised to 0.1% DMSO ([3]; 1.2 µM): 98.1891 and 97.8109 | PADI3 activity normalised to 0.1% DMSO ([3]; 2 µM): 82.1932 and 92.0315 | PADI3 activity normalised to 0.1% DMSO ([3]; 6 µM): 75.5533 and 73.7303 | PADI3 activity normalised to 0.1% DMSO ([3]; 10 µM): 66.499 and 67.8634 | PADI3 activity normalised to 0.1% DMSO ([3]; 30 µM): 30.8853 and 30.3853 | PADI3 activity normalised to 0.1% DMSO ([3]; 50 µM): 18.8129 and 17.5131 | IC50 ([3]; 60-minute time point, no preincubation): ~40 µM | selectivity for PADI4 over PADI3 [3]: Approximately 45 fold
Structure (SMILES): CC(C)C[C@@H]1NC(=O)[C@H](CCCCN)NC(=O)[C@H](CO)NC(=O)[C@H](CO)NC(=O)[C@H](Cc2ccc(O)cc2)NC(=O)[C@H](Cc2c[nH]cn2)NC(=O)[C@H](CCCNC(=N)CF)NC(=O)[C@H](CC(=O)O)NC(=O)[C@H](CC(C)C)NC(=O)[C@@H](Cc2ccc(O)cc2)NC(=O)CSC[C@@H](C(=O)NCC(N)=O)NC(=O)[C@H](Cc2ccc(O)cc2)NC1=O [cP4_15, yLD(2)HYSSKLYCG] ({CH2CO}-[dY]LD[Orn(fluoroacetimidoyl)]HYSSKLYCG-NH2; thioether N-12)

— publication PMC11659602, “Discovering covalent cyclic peptide inhibitors of peptidyl arginine deiminase 4 (PADI4) using mRNA-display with a genetically encoded electrophilic warhead” (Communications Chemistry, 2024)
